Measured values from US9149038B2, “4-amino-6-(heterocyclic)picolinates and 6-amino-2-(heterocyclic)pyrimidine-4-carboxylates and their use as herbicides” (Dow AgroSciences LLC, priority 2013, dated 2015).
Like-named read-outs stand apart in the source and are kept apart here.

Tested on: Direct Seeded Rice and weed species
Assay: Postemergence herbicidal activity in direct seeded rice, visual rating after 20-22 days and probit GR20/GR50/GR80/GR90 (Table 14)
Assay type: in vivo
Conditions: for pest or weed control at 17.5 g/ha / pest or weed control at 35 g/ha / pest or weed control at 70 g/ha: post-emergence, 504 h, postemergence; for pest or weed control at 17.5 g/ha: 17.5 g ai/ha; for pest or weed control at 35 g/ha: 35 g ai/ha; for pest or weed control at 70 g/ha: 70 g ai/ha
Excerpt: Herbicidal evaluations were made visually on a scale of 0 to 100 where 0 represents no activity and 100 represents complete plant death. Seeds or nutlets of the desired test plant species were planted in a soil matrix prepared by mixing a loam soil (43 percent silt, 19 percent clay, and 38 percent sand, with a pH of about 8.1 and an organic matter content of about 1.5 percent) and river sand in an 80 to 20 ratio. The soil matrix was contained in plastic pots with a surface area of 139.7 cm^2. When required to ensure good germination and healthy plants, a fungicide treatment and/or other chemical or physical treatment was applied. The plants were grown for 10-17 d in a greenhouse with an approximate 14-h photoperiod which was maintained at about 29° C. during the day and 26° C. during the night. Nutrients and water were added on a regular basis and supplemental lighting was provided with overhead metal halide 1000-Watt lamps as necessary. The plants were employed for testing when they reached the second or third true leaf stage. A weighed amount, determined by the highest rate to be tested, of each test compound was placed in 25 mL glass vials and dissolved in a volume of 97:3 v/v acetone-DMSO to obtain 12× stock solutions. […] The concentrated stock solutions were added to the spray solutions so that the final acetone and DMSO concentrations were 16.2% and 0.5%, respectively. Spray solutions were diluted to the appropriate final concentrations with the addition of 10 mL of an aqueous mixture of 1.5% (v/v) Agri-dex crop oil concentrate. The final spray solutions contained 1.25% (v/v) Agri-dex crop oil concentrate. Compound requirements are based upon a 12 mL application volume at a rate of 187 L/ha. Formulated compounds were applied to the plant material with an overhead Mandel track sprayer equipped with […] nozzles calibrated to deliver 187 L/ha over an application area of 0.503 square meters (m^2) at a spray height of 18 inches (43 cm) above average plant canopy height. Control plants were sprayed in the same manner with the solvent blank. The treated plants and control plants were placed in a greenhouse as described above and watered by sub-irrigation to prevent wash-off of the test compounds. After 20-22 days, the condition of the test plants, compared with that of the untreated plants, was determined visually and scored on a scale of 0 to 100 percent where 0 corresponds to no injury and 100 corresponds to complete kill and are presented as indicated in Table 4. By applying the well-accepted probit analysis as described by J. Berkson in Journal of the American Statistical Society, 48, 565 (1953) and by D. Finney in “Probit Analysis” Cambridge University Press (1952), herbicidal injury of a specific compound at various rates can be used to calculate GR20, GR50, GR80 and GR90 values, which are defined as growth reduction factors that correspond to the effective dose of herbicide required to provide plant growth reduction (GR) of 20 percent, 50 percent, 80 percent and 90 percent, respectively. Probit analysis was applied to data collected from multiple dose rates of individual compounds utilizing the procedures explained in the following examples. The data for some of the dose rates and analysis of all of the dose rates are captured in the following tables.

[1] = BRAPP (broadleaf signalgrass, Brachiaria platyphylla), read-out: Visual Growth Reduction (%) 21 Days After Application BRAPP
[2] = CYPDI (small-flower flatsedge, Cyperus difformis), read-out: Visual Growth Reduction (%) 21 Days After Application CYPDI
[3] = CYPES (yellow nutsedge, Cyperus esculentus), read-out: Visual Growth Reduction (%) 21 Days After Application CYPES
[4] = CYPIR (rice flatsedge, Cyperus iria), read-out: Visual Growth Reduction (%) 21 Days After Application CYPIR
[5] = DIGSA (large crabgrass, Digitaria sanguinalis), read-out: Visual Growth Reduction (%) 21 Days After Application DIGSA
[6] = ECHCG (barnyardgrass, Echinochloa crus-galli), read-out: Visual Growth Reduction (%) 21 Days After Application ECHCG
[7] = ECHCO (junglerice, Echinochloa colonum), read-out: Visual Growth Reduction (%) 21 Days After Application ECHCO
[8] = LEFCH (Chinese sprangletop, Leptochloa chinensis), read-out: Visual Growth Reduction (%) 21 Days After Application LEFCH
[9] = ORYSJ (Oryza sativa, rice crop), read-out: Visual Growth Reduction (%) 21 Days After Application ORYSJ
[10] = ORYSK (Oryza sativa, rice crop), read-out: Visual Growth Reduction (%) 21 Days After Application ORYSK
[11] = SCPJU (Japanese bulrush, Schoenoplectus juncoides Roxb.), read-out: Visual Growth Reduction (%) 21 Days After Application SCPJU
[12] = SEBEX (hemp sesbania, Sesbania exaltata), read-out: Visual Growth Reduction (%) 21 Days After Application SEBEX

COC(=O)c1nc(-c2ccc3c(c2F)OC(F)(F)O3)c(F)c(N)c1Cl [Compound 10]
GR50 BRAPP (BRAPP (Brachiaria platyphylla), probit analysis, dose for 50 percent growth reduction): 7 g ai/ha
GR80 BRAPP (BRAPP (Brachiaria platyphylla), probit analysis, dose for 80 percent growth reduction): 16 g ai/ha
GR90 BRAPP (BRAPP (Brachiaria platyphylla), probit analysis, dose for 90 percent growth reduction): 24 g ai/ha
GR50 CYPDI (CYPDI (Cyperus difformis), probit analysis, dose for 50 percent growth reduction): 4 g ai/ha
GR80 CYPDI (CYPDI (Cyperus difformis), probit analysis, dose for 80 percent growth reduction): 8 g ai/ha
GR90 CYPDI (CYPDI (Cyperus difformis), probit analysis, dose for 90 percent growth reduction): 10 g ai/ha
GR50 CYPES (CYPES (Cyperus esculentus), probit analysis, dose for 50 percent growth reduction): <18 g ai/ha
GR80 CYPES (CYPES (Cyperus esculentus), probit analysis, dose for 80 percent growth reduction): <18 g ai/ha
GR90 CYPES (CYPES (Cyperus esculentus), probit analysis, dose for 90 percent growth reduction): <18 g ai/ha
GR50 CYPIR (CYPIR (Cyperus iria), probit analysis, dose for 50 percent growth reduction): 6 g ai/ha
GR80 CYPIR (CYPIR (Cyperus iria), probit analysis, dose for 80 percent growth reduction): 10 g ai/ha
GR90 CYPIR (CYPIR (Cyperus iria), probit analysis, dose for 90 percent growth reduction): 13 g ai/ha
GR50 DIGSA (DIGSA (Digitaria sanguinalis), probit analysis, dose for 50 percent growth reduction): 1 g ai/ha
GR80 DIGSA (DIGSA (Digitaria sanguinalis), probit analysis, dose for 80 percent growth reduction): 8 g ai/ha
GR90 DIGSA (DIGSA (Digitaria sanguinalis), probit analysis, dose for 90 percent growth reduction): 21 g ai/ha
GR50 ECHCG (ECHCG (Echinochloa crus-galli), probit analysis, dose for 50 percent growth reduction): 10 g ai/ha
GR80 ECHCG (ECHCG (Echinochloa crus-galli), probit analysis, dose for 80 percent growth reduction): 14 g ai/ha
GR90 ECHCG (ECHCG (Echinochloa crus-galli), probit analysis, dose for 90 percent growth reduction): 16 g ai/ha
GR50 ECHCO (ECHCO (Echinochloa colonum), probit analysis, dose for 50 percent growth reduction): 6 g ai/ha
GR80 ECHCO (ECHCO (Echinochloa colonum), probit analysis, dose for 80 percent growth reduction): 14 g ai/ha
GR90 ECHCO (ECHCO (Echinochloa colonum), probit analysis, dose for 90 percent growth reduction): 21 g ai/ha
GR50 LEFCH (LEFCH (Leptochloa chinensis), probit analysis, dose for 50 percent growth reduction): 12 g ai/ha
GR80 LEFCH (LEFCH (Leptochloa chinensis), probit analysis, dose for 80 percent growth reduction): 20 g ai/ha
GR90 LEFCH (LEFCH (Leptochloa chinensis), probit analysis, dose for 90 percent growth reduction): 27 g ai/ha
GR20 ORYSJ (ORYSJ (Oryza sativa, rice crop), probit analysis, dose for 20 percent growth reduction): 14 g ai/ha
GR20 ORYSK (ORYSK (Oryza sativa, rice crop), probit analysis, dose for 20 percent growth reduction): 20 g ai/ha
GR50 SCPJU (SCPJU (Schoenoplectus juncoides Roxb.), probit analysis, dose for 50 percent growth reduction): 0.0002 g ai/ha
GR80 SCPJU (SCPJU (Schoenoplectus juncoides Roxb.), probit analysis, dose for 80 percent growth reduction): 0.0207 g ai/ha
GR90 SCPJU (SCPJU (Schoenoplectus juncoides Roxb.), probit analysis, dose for 90 percent growth reduction): 0.268 g ai/ha
GR50 SEBEX (SEBEX (Sesbania exaltata), probit analysis, dose for 50 percent growth reduction): 3 g ai/ha
GR80 SEBEX (SEBEX (Sesbania exaltata), probit analysis, dose for 80 percent growth reduction): 8 g ai/ha
GR90 SEBEX (SEBEX (Sesbania exaltata), probit analysis, dose for 90 percent growth reduction): 13 g ai/ha
pest or weed control at 17.5 g/ha [1]: 85 to 94%
pest or weed control at 35 g/ha [1]: 95 to 100%
pest or weed control at 70 g/ha [1]: 95 to 100%
pest or weed control at 17.5 g/ha [2]: 95 to 100%
pest or weed control at 35 g/ha [2]: 95 to 100%
pest or weed control at 70 g/ha [2]: 95 to 100%
pest or weed control at 17.5 g/ha [3]: 95 to 100%
pest or weed control at 35 g/ha [3]: 95 to 100%
pest or weed control at 70 g/ha [3]: 95 to 100%
pest or weed control at 17.5 g/ha [4]: 95 to 100%
pest or weed control at 35 g/ha [4]: 95 to 100%
pest or weed control at 70 g/ha [4]: 95 to 100%
pest or weed control at 17.5 g/ha [5]: 95 to 100%
pest or weed control at 35 g/ha [5]: 85 to 94%
pest or weed control at 70 g/ha [5]: 95 to 100%
pest or weed control at 17.5 g/ha [6]: 95 to 100%
pest or weed control at 35 g/ha [6]: 95 to 100%
pest or weed control at 70 g/ha [6]: 95 to 100%
pest or weed control at 17.5 g/ha [7]: 85 to 94%
pest or weed control at 35 g/ha [7]: 95 to 100%
pest or weed control at 70 g/ha [7]: 95 to 100%
pest or weed control at 17.5 g/ha [8]: 60 to 74%
pest or weed control at 35 g/ha [8]: 95 to 100%
pest or weed control at 70 g/ha [8]: 95 to 100%
pest or weed control at 17.5 g/ha [9]: 0 to 29%
pest or weed control at 35 g/ha [9]: 60 to 74%
pest or weed control at 70 g/ha [9]: 75 to 84%
pest or weed control at 17.5 g/ha [10]: 0 to 29%
pest or weed control at 35 g/ha [10]: 45 to 59%
pest or weed control at 70 g/ha [10]: 75 to 84%
pest or weed control at 17.5 g/ha [11]: 95 to 100%
pest or weed control at 35 g/ha [11]: 95 to 100%
pest or weed control at 70 g/ha [11]: 95 to 100%
pest or weed control at 17.5 g/ha [12]: 95 to 100%
pest or weed control at 35 g/ha [12]: 95 to 100%
pest or weed control at 70 g/ha [12]: 95 to 100%
